# Measurements from PubChem BioAssay AID463229 (Broad Institute, 2010).
# System: INS-1E rat beta cells, no cytokines, CellTiter-Glo ATP, 48 h
# Experiment: ATP level change in INS-1E without cytokines, dose response, counter-screen for beta-cell apoptosis protection project, INS-1E rat cells, ATP luminescence, cherry pick (AID 463229)
row,SMILES,AC50
1,COc1ccc2nc(N=Nc3ccc(O)c4ccccc34)sc2c1,7.16 µM
2,COc1cc(-c2nc3ccc(C)cn3c2NCc2ccccc2)ccc1SC1CCCCC1,5.49 µM
3,COc1cc([N+](=O)[O-])cc(/C=N/NC(=O)c2cc(-c3ccccc3)nc3ccccc23)c1O,9.5 µM
4,COc1ccc(C(C)NCCC(c2ccc(OC(C)C)cc2)c2ccccc2OC)cc1 (stereo unspecified),7.99 µM
5,COc1ccc2nc(Nc3nc(CSc4nc5ccccc5[nH]4)cc(=O)[nH]3)nc(C)c2c1,7.05 µM
6,CN(CC1CCCO1)S(=O)(=O)c1ccc(C(=O)Nc2nc(-c3ccccn3)cs2)cc1 (stereo unspecified),10.4 µM
7,NCCCn1c(C(=O)c2cc(Cl)c(N)c(Cl)c2)c2ccc([N+](=O)[O-])cc2[n+]1[O-],5.34 µM
8,Cc1ccc(C)c(S(=O)(=O)Nc2ccc(O)c3ccccc23)c1,14.1 µM
9,C=CCSc1nc2ccccc2n1C(=O)/C=C/c1ccc(OC)c(OC)c1,11 µM
10,CCc1c(C)sc2nc(C(C)C)nc(SCC(=O)N3CCc4ccccc4C3)c12,2.08 µM
11,COc1cccc(CN(C)C(=O)c2cc(COc3ccc4ncccc4c3)on2)c1,6.86 µM
12,CC1(C)C(C=C(Cl)Cl)C1C(=O)Nc1ccc([N+](=O)[O-])cc1 (stereo unspecified),7.7 µM
13,O=C(c1cc(-c2ccccc2Cl)nc2ccccc12)N1CCN(c2ccccn2)CC1,4.44 µM
14,CCOC(=O)[C@@H]1[C@H]2COc3cc(OC)ccc3[C@H]2N2C(=O)N(c3ccc(C(F)(F)F)cc3)C(=O)[C@]12C,15 µM
15,O=[N+]([O-])c1ccc(-c2nc(C(Cl)Cl)c3ccccc3n2)cc1,1.66 µM
16,COc1cc(/C=N/N=C(N)N)ccc1OCc1ccc(Cl)cc1,7.22 µM
17,N#Cc1c(N2CCCCC2)nc(N2CCCCC2)c2c1CCN(Cc1ccccc1)C2,13.8 µM
18,CN1/C(=C\C(=O)C[n+]2cccc(Br)c2)C(C)(C)c2ccccc21,5.88 µM
19,C/C(=N\NC(=O)c1cc(C)nc2ccccc12)c1ccccn1,2.83 µM
20,COc1ccc(C(=O)N/N=C(\c2ccccc2)c2ccccn2)cc1,3.51 µM
21,N/C(=N\NC(=O)c1sccc1OCc1ccc(Cl)cc1Cl)c1ccccn1,11.8 µM
22,CC(=O)NC(c1cccc([N+](=O)[O-])c1)c1ccc2cccnc2c1O (stereo unspecified),2.58 µM
23,O=C(CCCCCCCCCCC(=O)NCc1cccnc1)NCc1cccnc1,< 0.195 µM

row,SMILES,AC50
1,CCCCCCC[N+](CC)(CC)CCCCc1ccc(Cl)cc1,4.93 µM
2,O=C(N/N=C/c1ccc(O)c2ncccc12)c1cccc(Br)c1,3.05 µM
3,Cc1ccc2nc(-c3ccc(NC(=O)c4cccnc4)cc3)oc2c1,7.8 µM
4,N#C/C(N=Nc1ccccc1O)=N\Nc1ccccc1O,4.12 µM
5,CC(=O)/C=C1\N(C)c2ccc(C)cc2C1(C)C,7.3 µM
6,CCCCCCc1cc2cc(-c3nnc(-c4ccccc4)o3)c(=O)oc2cc1O,7.25 µM
7,CCCCC(=O)NC(c1ccccc1)c1ccc2cccnc2c1O (stereo unspecified),2.24 µM
8,O=C(COc1ccc(Br)cc1)N1CCN(Cc2c[nH]c3ccccc23)CC1,3 µM
9,C/C(=N\NC(=O)Cc1ccc(Cl)cc1)c1ccccn1,4.89 µM
10,Clc1cc2cccnc2c2ncccc12,15 µM
11,c1ccc(CNc2nc(-c3ccccn3)nc3ccccc23)cc1,7.68 µM
12,Cc1occc1C(=O)N/N=C/c1ccc2c(c1)OCO2,5.48 µM
13,Cc1cc(C)n(Cc2ccc(NC(=O)c3ccc(COc4ccccc4Br)cc3)cc2)n1,8.33 µM
14,Cc1cc[n+](C(C)C(=O)c2ccc(-c3ccccc3)cc2)cc1 (stereo unspecified),3.81 µM
15,O=C(NC1CCCC1)c1cc(COc2ccc3ncccc3c2)on1,5.91 µM
16,O=[N+]([O-])c1c(Nc2ccc(O)cc2)cc(Cl)c2nonc12,8.76 µM
17,CC(C)NC(=S)N/N=C/c1cc(Br)ccc1O,12.6 µM
18,O=C(/C=C/c1ccc(F)cc1)NC(=S)NNC(=O)c1cnccn1,5.29 µM
19,Oc1ccc(N=Nc2nccs2)c(O)c1,6.64 µM
20,CC(=O)C1=C(c2ccc(Br)cc2)C(=O)c2ccccc2C1=O,3.63 µM
21,O=[N+]([O-])c1cnc(Sc2ccncn2)s1,5.75 µM
22,O=C(N/N=C/c1ccccc1O)c1cccc(C(F)(F)F)c1,7.18 µM
23,Cc1nc(N2CCN(C(=O)c3ccco3)CC2)c2c3c(sc2n1)CC(C)CC3 (stereo unspecified),5.51 µM
